22 compounds from PubChem BioAssay AID266 (DTP/NCI, 2004) can be followed below.

Several values for one entry are separate records, joined by “and”; a condition that tells them apart may be missing. Equal entries are not always repeated. Results filed as inconclusive are left out.

The test relates to Nude mice, LX-1 lung xenograft intrarenal, tumor weight T/C. The test is described as follows: NCI In Vivo Anticancer Drug Screen. Data for tumor model Human Lung LX-1 Xenograft (intrarenal inoculation) in NU/NU BALB/C (nude) mice. To be noted: endpoint: mean tumor weight change, higher = larger tumour. As to the method: The antitumor activity of compounds was measured in mice bearing transplantable tumors. Survival or tumor size were measured and the results are expressed as the measurement made in the treated group (T) divided by the measurement made in the vehicle treated control group (C). The tumor model used in this assay is Human Lung LX-1 Xenograft (intrarenal inoculation) in NU/NU BALB/C (nude) mice
On the technique in general: In xenograft studies the graft and the host belong to different species.

Setting [1] is: dose: 300.0 mg/kg/injection, schedule: Q04DX003 (sc), vehicle: saline.
The mark [2] stands for this setting: dose: 600.0 mg/kg/injection, schedule: Q04DX003 (sc), vehicle: saline.
The mark [3] stands for this setting: dose: 1200.0 mg/kg/injection, schedule: Q04DX003 (sc), vehicle: saline.
The mark [4] stands for this setting: dose: 200.0 mg/kg/injection, schedule: Q01DX010 (sc), vehicle: saline.
Setting [5] is: dose: 600.0 mg/kg/injection, schedule: Q04DX003 (sc), vehicle: saline with Tween-80.
The mark [6] stands for this setting: dose: 1200.0 mg/kg/injection, schedule: Q04DX003 (sc), vehicle: saline with Tween-80.
Where [7] appears, read: dose: 2400.0 mg/kg/injection, schedule: Q04DX003 (sc), vehicle: saline with Tween-80.
Setting [8] is: dose: 12.5 mg/kg/injection, schedule: Q01DX010 (sc), vehicle: saline with Tween-80.
[9] abbreviates: dose: 25.0 mg/kg/injection, schedule: Q01DX010 (sc), vehicle: saline with Tween-80.

`C/C(=N\NC(=S)N1CCN(c2ccccn2)CC1)c1ccccn1`: the T/C is 106 % of control (dose: 37.5 mg/kg/injection, schedule: Q04DX003 (sc), vehicle: water) and 102 % of control (dose: 75.0 mg/kg/injection, schedule: Q04DX003 (sc), vehicle: water).
For `Nc1ccc(Cn2ccc3c4c(N)nc(N)nc4ccc32)cc1`, the T/C is 68 % of control (dose: 9.38 mg/kg/injection, schedule: Q04DX003 (sc), vehicle: saline with Tween-80); 51 % of control (dose: 18.75 mg/kg/injection, schedule: Q04DX003 (sc), vehicle: saline with Tween-80); 52 % of control (dose: 37.5 mg/kg/injection, schedule: Q04DX003 (sc), vehicle: saline with Tween-80).
Turning to `NC(N)=NOCC[C@@H](N)C(=O)O`, the T/C is 91 % of control under setting [1]; 91 % of control under setting [2]; 82 % of control under setting [3]; 59 % of control (dose: 2400.0 mg/kg/injection, schedule: Q04DX003 (sc), vehicle: saline).
`c1cc2n(n1)CCN2`: the T/C is 107 % of control (dose: 50.0 mg/kg/injection, schedule: Q01DX010 (ip), vehicle: saline); 26 % of control (dose: 50.0 mg/kg/injection, schedule: Q01DX010 (sc), vehicle: saline); 70 % of control (dose: 100.0 mg/kg/injection, schedule: Q01DX010 (ip), vehicle: saline); 12 % of control (dose: 100.0 mg/kg/injection, schedule: Q01DX010 (sc), vehicle: saline); 170 % of control (dose: 166.66 mg/kg/injection, schedule: Q04DX003 (sc), vehicle: saline); -33 % of control under setting [4]. For the same compound, the T/C was 150 % of control (dose: 333.33 mg/kg/injection, schedule: Q04DX003 (sc), vehicle: saline) and 59 % of control (dose: 666.65 mg/kg/injection, schedule: Q04DX003 (sc), vehicle: saline).
Consider `Nc1ncn(C2CC(O)C(CO)O2)c(=O)n1` (centres undefined), for which, under “dose: 0.75 mg/kg/injection, schedule: Q01DX010 (sc), vehicle: saline”, the T/C is 85 % of control.
As for `CCOC(=O)N(C)N=NC`, the T/C (dose: 7.5 mg/kg/injection, schedule: Q04DX003 (ip), vehicle: saline) was 57 % of control; the T/C (dose: 15.0 mg/kg/injection, schedule: Q04DX003 (ip), vehicle: saline) was 51 % of control; the T/C (dose: 60.0 mg/kg/injection, schedule: Q04DX003 (ip), vehicle: saline) was 14 % of control and 24 % of control.
As to `COC(=O)c1ccc(N=NN(C)COC(C)=O)cc1`, the T/C runs as follows: (dose: 155.52 mg/kg/injection, schedule: Q04DX003 (ip), vehicle: Klucel (hydroxypropylcellulose) (HPC)) 78 % of control; (dose: 259.2 mg/kg/injection, schedule: Q04DX003 (ip), vehicle: Klucel (hydroxypropylcellulose) (HPC)) 47 % of control; (dose: 432.0 mg/kg/injection, schedule: Q04DX003 (ip), vehicle: Klucel (hydroxypropylcellulose) (HPC)) 60 % of control; (dose: 720.0 mg/kg/injection, schedule: Q04DX003 (ip), vehicle: Klucel (hydroxypropylcellulose) (HPC)) 64 % of control.
Turning to `CC(C#N)(C#N)N=Nc1ccc(Cl)cc1Cl`, the T/C reads like this: under setting [5], 124 % of control; under setting [6], 86 % of control; under setting [7], 102 % of control.
As for `O=C1CCC(=O)N1CO`, the T/C (dose: 150.0 mg/kg/injection, schedule: Q04DX003 (sc), vehicle: saline) was 95 % of control; the T/C under setting [1] is 93 % of control; the T/C under setting [2] was 82 % of control; the T/C under setting [3] was 63 % of control.
Consider `CC(=O)C(O)N1C(=O)C=CC1=O` (centres undefined), for which the T/C runs as follows: (dose: 2.5 mg/kg/injection, schedule: Q01DX010 (sc), vehicle: saline) 73 % of control; (dose: 5.0 mg/kg/injection, schedule: Q01DX010 (sc), vehicle: saline) 92 % of control; (dose: 10.0 mg/kg/injection, schedule: Q01DX010 (sc), vehicle: saline) 101 % of control.
With `c1cc(OCC2CO2)ccc1OCC1CO1` (centres undefined), the T/C by setting is: (dose: 300.0 mg/kg/injection, schedule: Q04DX003 (sc), vehicle: saline with Tween-80) 172 % of control; under setting [5], 118 % of control; under setting [6], 114 % of control; under setting [7], 88 % of control.
In the case of `Cc1cc(NCCCCCCCNc2cc(C)nc3cc(N)ccc23)c2ccc(N)cc2n1`, the T/C was 48 % of control under setting [8] and 11 % of control under setting [9].
As to `O=c1cnn(C2OC(CO)C(O)C2O)c(=O)[nH]1` (centres undefined), the T/C is 42 % of control under setting [4]; 46 % of control (dose: 400.0 mg/kg/injection, schedule: Q01DX010 (sc), vehicle: saline); 35 % of control (dose: 800.0 mg/kg/injection, schedule: Q01DX010 (sc), vehicle: saline).
`O=C1NC(=O)NC(C(=O)O)N1`: the T/C is 87 % of control (dose: 100.0 mg/kg/injection, schedule: Q04DX003 (sc), vehicle: Klucel (hydroxypropylcellulose) (HPC)); 98 % of control (dose: 200.0 mg/kg/injection, schedule: Q04DX003 (sc), vehicle: Klucel (hydroxypropylcellulose) (HPC)); 106 % of control (dose: 400.0 mg/kg/injection, schedule: Q04DX003 (sc), vehicle: Klucel (hydroxypropylcellulose) (HPC)).
Consider `c1ccc2c(NCCCCCCCCNc3c4ccccc4nc4ccccc34)c3ccccc3nc2c1`, for which the T/C was 60 % of control (dose: 5.0 mg/kg/injection, schedule: Q01DX010 (sc), vehicle: Klucel (hydroxypropylcellulose) (HPC)); 76 % of control (dose: 10.0 mg/kg/injection, schedule: Q01DX010 (sc), vehicle: Klucel (hydroxypropylcellulose) (HPC)); 23 % of control (dose: 20.0 mg/kg/injection, schedule: Q01DX010 (sc), vehicle: Klucel (hydroxypropylcellulose) (HPC)); 36 % of control (dose: 40.0 mg/kg/injection, schedule: Q01DX010 (sc), vehicle: Klucel (hydroxypropylcellulose) (HPC)).
With `CCCNC1=C(C)C(=O)C2=C(C1=O)[C@H](COC(N)=O)[C@]1(OC)[C@@H]3N[C@@H]3CN21`, the T/C reads like this: (dose: 12.0 mg/kg/injection, schedule: Q04DX003 (sc), vehicle: saline + alcohol) 52 % of control; (dose: 24.0 mg/kg/injection, schedule: Q04DX003 (sc), vehicle: saline + alcohol) 8 % of control.
With `CCCCCCCCNc1cc2c3c(c1)CCCN3CCC2`, the T/C by setting is: (dose: 6.0 mg/kg/injection, schedule: Q04DX003 (sc), vehicle: Klucel (hydroxypropylcellulose) (HPC)) 155 % of control; (dose: 12.0 mg/kg/injection, schedule: Q04DX003 (sc), vehicle: Klucel (hydroxypropylcellulose) (HPC)) 118 % of control; (dose: 24.0 mg/kg/injection, schedule: Q04DX003 (sc), vehicle: Klucel (hydroxypropylcellulose) (HPC)) 106 % of control.
In the case of `CO[C@H](/C(C)=C/C=C/C(C)=C/c1coc(C)n1)[C@H](C)[C@H]1C[C@@H](O)[C@@]2(C)O[C@H]2/C=C/[C@@H](C)[C@@H]2C[C@@H](CC(=O)O2)C[C@H]2O[C@@H]2C(=O)O1`, the T/C (dose: 0.13 mg/kg/injection, schedule: Q04DX003 (sc), vehicle: Klucel (hydroxypropylcellulose) (HPC)) was 105 % of control and the T/C (dose: 0.25 mg/kg/injection, schedule: Q04DX003 (sc), vehicle: Klucel (hydroxypropylcellulose) (HPC)) was 95 % of control.
As for `CC(Oc1ccccc1-c1ccccc1)C(=O)N(C)C` (centres undefined), the T/C under setting [5] is 100 % of control, the T/C under setting [6] was 116 % of control and the T/C under setting [7] is 107 % of control.
`CN(N=O)C(N)=O`: the T/C reads like this: under setting [8], -68 % of control; under setting [9], -54 % of control; (dose: 50.0 mg/kg/injection, schedule: Q01DX010 (sc), vehicle: saline with Tween-80) -69 % of control.
In the case of `[Cl][Hg][Cl]`, the T/C (dose: 2.5 mg/kg/injection, schedule: Q04DX003 (ip), vehicle: saline) is 92 % of control; the T/C (dose: 5.0 mg/kg/injection, schedule: Q04DX003 (ip), vehicle: saline) was 82 % of control; the T/C (dose: 10.0 mg/kg/injection, schedule: Q04DX003 (ip), vehicle: saline) is 58 % of control.
On to `NC(=O)/C=C/C(=O)c1c(Cl)cccc1Cl`, for which the T/C runs as follows: (dose: 9.0 mg/kg/injection, schedule: Q04DX003 (sc), vehicle: saline with Tween-80) 83 % of control; (dose: 18.0 mg/kg/injection, schedule: Q04DX003 (sc), vehicle: saline with Tween-80) 79 % of control.
